Each compound was assayed against T1, Ubiquitin carboxyl-terminal hydrolase 1 (Homo sapiens, UniProt O94782) (assay: Experimental Method of USP1 Enzyme Activity).
T1 sequence (O94782 whole entry): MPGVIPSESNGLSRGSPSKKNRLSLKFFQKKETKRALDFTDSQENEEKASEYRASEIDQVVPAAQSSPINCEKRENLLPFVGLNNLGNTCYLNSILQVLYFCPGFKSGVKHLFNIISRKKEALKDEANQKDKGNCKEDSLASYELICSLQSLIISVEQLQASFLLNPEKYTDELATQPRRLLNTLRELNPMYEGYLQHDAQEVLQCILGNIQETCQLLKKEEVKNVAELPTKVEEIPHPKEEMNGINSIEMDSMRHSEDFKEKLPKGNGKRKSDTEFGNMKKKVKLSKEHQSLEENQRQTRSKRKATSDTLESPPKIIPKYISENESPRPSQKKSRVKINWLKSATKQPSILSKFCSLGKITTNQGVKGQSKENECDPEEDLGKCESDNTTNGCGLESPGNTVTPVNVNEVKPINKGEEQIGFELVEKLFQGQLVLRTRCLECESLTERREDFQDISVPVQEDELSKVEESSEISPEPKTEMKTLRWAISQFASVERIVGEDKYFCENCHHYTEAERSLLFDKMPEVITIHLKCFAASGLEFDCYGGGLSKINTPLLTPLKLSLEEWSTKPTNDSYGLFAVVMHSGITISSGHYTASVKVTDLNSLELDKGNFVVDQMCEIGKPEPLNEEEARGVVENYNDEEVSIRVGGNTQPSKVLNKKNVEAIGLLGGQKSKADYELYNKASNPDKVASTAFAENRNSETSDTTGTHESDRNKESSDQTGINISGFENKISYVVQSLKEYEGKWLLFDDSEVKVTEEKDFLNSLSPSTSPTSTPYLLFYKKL
Excerpt: USPli compounds were screened by USP1 enzyme activity detection experiment.1.1 Experimental materials: recombinant human His6-USP1/His6-UAF1 composite protein.
Work on [2H]C([2H])([2H])Oc1ncnc(C2CC2)c1-c1ncc2c3cn(C)nc3n(Cc3ccc(-c4nc(C(F)(F)F)cn4C(C)C)cc3)c2n1 [US20250368667, Compound 162] yielded an IC50 of 5.49 nM. Compound COc1ncnc(C2CC2)c1-c1ncc2c3ccc(C(C)C)nc3n(Cc3ccc4c(c3)CCCn3cc(C(F)(F)F)nc3-4)c2n1 [US20250368667, Compound 105] has an IC50 of 5.17 nM. For COc1ncnc(C2CC2)c1-c1ncc2c3ccc(=O)[nH]c3n(Cc3ccc4c(c3)CCCn3cc(C(F)(F)F)nc3-4)c2n1 [US20250368667, Compound 159], the IC50 was 16.6 nM. COc1cnn(C2CC2)c1-c1ncc2c3ccncc3n(Cc3ccc(-c4nc(C(F)(F)F)cn4C)cc3)c2n1 [US20250368667, Compound 103] was tested, and the IC50 was 12.3 nM.

— BindingDB's records for patent US20250368667 (Shanghai Qilu Pharmaceutical Research and Development Centre, 2025)
